Laboratory results: US20230125667A1, “NOVEL TDZD ANALOGS AS AGENTS THAT DELAY, PREVENT, OR REVERSE AGE-ASSOCIATED DISEASES AND AS ANTI-CANCER AND ANTILEUKEMIC AGENTS” (United States Government as represented by the Department …, priority 2020, published 2023)

What was measured:
wild-type nematodes = experiment: Lifespan of C. elegans; type: in vivo; conditions: FIG. 8
Procedure: It was previously shown that several interventions that improve age-associated phenotypes also modulate lifespan (Ayyadevara et al. (2017) Antioxid Redox Signal. 27(17): 1383-1396; Ayyadevara et al. (2005) Aging Cell. 4(5): 257-271). The lifespan was assessed in C. elegans, either mock-treated or exposed to TDZD analogues. PNR-962 and BSK-179 extended the lifespan of wild-type nematodes to an identical degree, increasing the mean by roughly 25-30% (P<0.001; FIG. 8).
To obtain synchronized eggs for lifespan studies, worms were maintained for 2 generations, free of contamination and starvation. Healthy, well-fed adult worms from the 2nd generation were then lysed, and eggs placed on plates with appropriate doses of TDZD analogue PNR962, or DMSO vehicle alone (for a final concentration of 0.02% v/v DMSO). At the L4 larval stage, worms were transferred daily to fresh plates for 7 days, and thereafter on alternate days until all the worms are dead. C. elegans that moved spontaneously or responded to gentle prodding were scored as alive. For the mortality computation, worms that were lost for reasons other than natural death were censored. The methods described were adopted from previously described experimental procedures (Ayyadevara, et al. (2016) PIP3-binding proteins promote age-dependent protein aggregation and limit survival in C. elegans. Oncotarget, 7(31): 48870-48886; Bharill, et al. (2013) Extreme Depletion of PIP3 Accompanies the Increased Life Span and Stress Tolerance of PI3K-null C. elegans Mutants. Frontiers in Genetics, 4).

C. elegans strain AM141 = experiment: Q40::YFP aggregates in C. elegans strain AM141; type: in vivo
Procedure: (§1) Several TDZD-conjugated drugs (putative GSK-3 inhibitors) were evaluated for their ability to reduce accumulation of protein aggregates, and for protection against aggregation-associated end-points in the following model systems: (i.) SH-SY5Y-APPSw, a neuroblastoma cell line expressing the Swedish mutation of Amyloid Precursor Protein (APPSw), and thus predisposed to form β-amyloid deposits; (ii.) C. elegans strain CL4176, a model of Alzheimer-like amyloidopathy that can be induced to express human Aβ1-42 in muscle, or may express it at a lower level without induction; (iii.) C. elegans strain AM141, a model of Huntington-like polyglutamine aggregation that constitutively expresses Q40::YFP (a tract of 40 glutamines fused in-frame to yellow fluorescent protein) in muscle cells and forms aggregates progressively with adult aging. The TDZD analog PNR-962 (a putative GSK-3 inhibitor) and other related compounds (not shown) were protective in all aggregation assays.
Fresh agar plates supporting bacterial lawns, which serve as food for C. elegans, were prepared at least 1 day ahead of use. C. elegans AM141 (forming Q40::YFP aggregates in muscle, progressively in early adulthood) were placed on these 100-mm plates. Day-4 adult worms were lysed with alkaline hypochlorite solution to obtain eggs from worms, a procedure that permits synchronization of worms in a cohort. Eggs were placed on plates spotted with different concentrations of TDZD analogues after allowing the compounds to be evenly distributed on the plates (˜1 hour after adding drugs to plates). Vehicle-only (DMSO) controls are included in each experiment, as a baseline for drug effects in experimental groups. Young-adult AM141 (day-3 adults) were transferred on alternate days onto fresh plates that contained the same doses of compounds, with fresh E. coli to prevent starvation of worms. Equal samples (n=25) were randomly picked from experimental groups and control group for microscopic imaging. Using an in-house plugin for ImageJ software (NIH), several images of AM141 were processed for aggregate count per worm. The fluorescence intensity of each aggregate (indicating the size/content of protein aggregates) was also measured. Each drug treatment was repeated multiple times to validate the results.

SH-SY5Y-APPSw cells = experiment: Thioflavin-T staining of amyloid-like aggregates in SH-SY5Y-APPSw cells; type: cell-based, human
Procedure: as §1
First, the effects of TDZD analogues were tested on the human neuroblastoma cell line SH-SY5Y-APPSw, a model of Alzheimer-like amyloid aggregation expressing the “Sw” mutant form of Amyloid Precursor Protein, APP. These drugs all produced significant reductions in amyloid-like aggregates, by 30-50% as quantified by thioflavin-T staining intensity (data for PNR-962 are shown in FIG. 4). Modified TDZD-8 analogues PNR-962 and BSK-179 are more anti-aggregative than TDZD-8, lowering total amyloid-staining intensity by a further 14% (data not shown).
Following previously described experimental procedures (Liu, et al. (2005). S100B-induced microglial and neuronal IL-1 expression is mediated by cell type-specific transcription factors. Journal of Neurochemistry. 92(3): 546-553), SH-SY5Y-APPSw neuronal cells expressing an aggregation-prone double mutant of amyloid precursor protein (APPSw) were cultured in DMEM plus 10% (v/v) fetal bovine serum (FBS) at 37° C. Cells were suspended in trypsin/EDTA and rinsed in PBS prior to re-plating or harvesting. […] Human neuroblastoma cells were treated with PNR962, either simultaneous with sAPPα or beginning 1 h prior to sAPPα addition (pre-treatment) in order to ascertain the protective benefits of PNR962 on protein aggregation in human neuroblastoma cell lines. A similar experimental procedure was followed to examine the effect of treatment with these analogs on non-neuronal human cells, exposing human embryonic kidney cells (HEK) that express tau-like aggregates (found in AD-associated diseases) to 0.001, 0.01, and 1-μM doses of TDZD-8 and its analogues.
To observe the protective effects of the novel TDZD analogs on protein aggregation in SY5Y-APPSw cells, using DMEM medium containing 10% fetal calf serum in […], cells were cultured at 37′C for 26 hrs allowing cells to approximately double in number. After 48 h of cell incubation in the presence of specified concentrations of drug or vehicle, cells were fixed 15 min in formaldehyde (4% v/v), washed, and stained 20 min at ˜22° C. in a dark container with 0.1% w/v Thioflavin T mixed with DAPI (1 μg/ml; Life Technologies, Grand Island, N.Y., USA). […] The intensity of aggregate/thioflavin-T fluorescence per field was quantified via an Image J plug-in developed in-house, and normalized to the number of DAPI^+ nuclei counted per field, to obtain an average intensity of aggregates per cell for each treatment.

C. elegans = conditions: in vivo; cited from earlier work

Structure (SMILES) | lifespan (wild-type nematodes) | number of aggregation foci (C. elegans strain AM141; C. elegans model of Huntington's Disease (FIG. 7)) | reduction of total intensity of Q40::YFP aggregates (C. elegans strain AM141; FIG. 7) [fold] | further lowering of total amyloid-staining intensity relative to TDZD-8 (SH-SY5Y-APPSw cells; data not shown) [%] | amyloid accumulation (thioflavin T stained foci) (SH-SY5Y-APPSw cells; treated for 2 days (FIG. 9)) | extension of nematode lifespan (C. elegans) [%]
CC(=O)Oc1ccccc1C(=O)NCc1ccc(Cn2c(=O)sn(CCCl)c2=O)cc1 [BSK-179] | increased | decreases | > 2 | 14 | reduces amyloid accumulation | 
CC(=O)Oc1ccccc1C(=O)O [aspirin, acetylsalicylic acid, reference compound] | increased |  |  |  |  | 22
